Data taken from ChEMBL document CHEMBL3867479, “Multiple biological activities and molecular docking studies of newly synthesized 3-(pyridin-4-yl)-1H-pyrazole-5-carboxamide chalcone hybrids” (Bioorg Med Chem Lett, 2016).
The source made the active and inactive calls. The calls are words filed in the database; no cut-off is given here.

How the values were obtained:
[1] = Antioxidant activity assessed as H2O2 free radical scavenging activity at 100 uM by UV-Vis spectrophotometric analysis; format: functional
[2] = system: Pseudomonas aeruginosa; test: Antibacterial activity against Pseudomonas aeruginosa ATCC 10145 after 24 hrs by well diffusion method; format: functional
[3] = system: Streptococcus pyogenes; test: Antibacterial activity against Streptococcus pyogenes ATCC 12358 after 24 hrs by well diffusion method; format: functional
[4] = Antioxidant activity assessed as DPPH free radical scavenging activity at 100 uM by UV-Vis spectrophotometric analysis; format: functional
[5] = system: Erythrocyte; test: Antiinflammatory activity in human RBC at 10 to 500 uM by membrane stabilization method; format: functional, cell-based
[6] = system: Staphylococcus aureus; test: Antibacterial activity against Staphylococcus aureus ATCC 11632 after 24 hrs by well diffusion method; format: functional
[7] = Antioxidant activity assessed as anti-inflammatory activity by measuring decrease in bovine serum albumin denaturation at 10 to 500 uM; format: functional
[8] = system: Klebsiella pneumoniae; test: Antibacterial activity against Klebsiella pneumoniae ATCC 10031 after 24 hrs by well diffusion method; format: functional

Structure (SMILES)	IC50 [1]	IC50 [4]	inhibition zone (IZ) [2]	inhibition zone (IZ) [3]	Activity [5]	inhibition zone (IZ) [6]	Activity [7]	inhibition zone (IZ) [8]
O=C(/C=C/c1ccccc1)c1cccc(NC(=O)c2cc(-c3ccncc3)n[nH]2)c1	71.5 µM	67.1 µM	9.5 mm	13.2 mm	Active	7.5 mm	–	–
O=C(/C=C/c1ccccc1Cl)c1cccc(NC(=O)c2cc(-c3ccncc3)n[nH]2)c1	79.8 µM	27.7 µM	8.3 mm	7.4 mm	Active	–	Active	–
O=C(/C=C/c1ccccc1)c1ccccc1 [CHALCONE]	98.1 µM	70.9 µM	7 mm	6.5 mm	Active	6 mm	–	5 mm
NC(=O)c1cc(-c2ccncc2)n[nH]1	89.1 µM	82.1 µM	4 mm	6 mm	Active	5 mm	–	5 mm
O=C(/C=C/c1ccco1)c1cccc(NC(=O)c2cc(-c3ccncc3)n[nH]2)c1	72.3 µM	41.8 µM	5.7 mm	13.2 mm	Active	10.7 mm	Active	5.8 mm
O=C(/C=C/c1ccc(Cl)cc1)c1cccc(NC(=O)c2cc(-c3ccncc3)n[nH]2)c1	78.9 µM	63.9 µM	10.2 mm	15.3 mm	Active	12.3 mm	Active	–
O=C(/C=C/c1cccc2ccccc12)c1cccc(NC(=O)c2cc(-c3ccncc3)n[nH]2)c1	72.1 µM	64.5 µM	6.3 mm	15.4 mm	Active	12.3 mm	Active	–
O=C(/C=C/c1ccc(Cl)cc1Cl)c1cccc(NC(=O)c2cc(-c3ccncc3)n[nH]2)c1	80.9 µM	35 µM	12.2 mm	15.5 mm	Active	17.5 mm	Active	6.8 mm

Continued by falling IC50 [1], values first:

IC50 [1]	IC50 [4]	Structure (SMILES)	inhibition zone (IZ) [2]	inhibition zone (IZ) [3]	Activity [5]	inhibition zone (IZ) [6]	Activity [7]	inhibition zone (IZ) [8]
70 µM	27.6 µM	O=C(/C=C/c1cccs1)c1cccc(NC(=O)c2cc(-c3ccncc3)n[nH]2)c1	8.6 mm	13.5 mm	Active	15.4 mm	Active	7.5 mm
64.6 µM	52.8 µM	O=C(/C=C/c1ccc([N+](=O)[O-])cc1)c1cccc(NC(=O)c2cc(-c3ccncc3)n[nH]2)c1	10.4 mm	19.3 mm	Active	20.2 mm	–	–
64.6 µM	69.4 µM	Cc1ccc(/C=C/C(=O)c2cccc(NC(=O)c3cc(-c4ccncc4)n[nH]3)c2)cc1	7.8 mm	7.9 mm	Active	5.9 mm	–	–
60.9 µM	41.9 µM	CN(C)c1ccc(/C=C/C(=O)c2cccc(NC(=O)c3cc(-c4ccncc4)n[nH]3)c2)cc1	10.5 mm	12.4 mm	Active	7.8 mm	Active	5.9 mm
60.2 µM	52.3 µM	CC(C)c1ccc(/C=C/C(=O)c2cccc(NC(=O)c3cc(-c4ccncc4)n[nH]3)c2)cc1	9.6 mm	9.4 mm	Active	6.8 mm	Active	–
58.7 µM	56 µM	O=C(/C=C/c1ccc(F)cc1)c1cccc(NC(=O)c2cc(-c3ccncc3)n[nH]2)c1	12.1 mm	–	Active	5.4 mm	–	–
56.7 µM	41.7 µM	COc1ccccc1/C=C/C(=O)c1cccc(NC(=O)c2cc(-c3ccncc3)n[nH]2)c1	8.8 mm	9.7 mm	Active	6.8 mm	–	–
54.6 µM	38.4 µM	COc1ccc(/C=C/C(=O)c2cccc(NC(=O)c3cc(-c4ccncc4)n[nH]3)c2)cc1	12.5 mm	10.6 mm	Active	4.5 mm	–	5.2 mm
52.9 µM	54.5 µM	COc1cc(/C=C/C(=O)c2cccc(NC(=O)c3cc(-c4ccncc4)n[nH]3)c2)cc(OC)c1OC	5.2 mm	11.6 mm	Active	12.6 mm	Active	–
